# Where “and” joins values, the source holds several entries; their conditions need not be identical. Identical values can stand only once.
# Experiments:
# [1] = system: pfeA gene; experiment: RT-qPCR of pfeA gene transcription in strains grown with 10 µM enterobactin; type: cell-based, Pseudomonas aeruginosa; conditions: replicate values, Figure 6a
# Protocol: Fig. 6 Effects of PfeA mutation in vivo. a Analysis of changes in the transcription of pfeA gene. PAO1 strain, its corresponding deletion mutant ∆pfeA and deletion mutants carrying the expression plasmid of PfeA wild-type (∆pfeA(pMMBpfeA) or the R480A-Q482A mutant (∆pfeA(pMMBpfeAR480AQ482A)) were grown in CAA medium supplemented with 10 µM enterobactin. The data were normalised relative to the reference gene uvrD, and are representative of three independent experiments performed in triplicate (n = 3). The results are given as a ratio between the values obtained for ∆pfeA, ∆pfeA(pMMBpfeA) and ∆pfeA(pMMBpfeAR480AQ482A) over those obtained for the PAO1 strain. b ^55Fe-enterobactin binding at the bacterial surface. Cells were grown as in panel a, and were incubated for 15 min with 200 µM CCCP before initiation of transport assays by the addition of 500 nM ^55Fe-enterobactin. After 30 min incubation, the radioactivity accumulated in the bacteria was counted. The results are expressed as pmol of ^55Fe-enterobactin bound per ml of cells at an OD600 of 1. The experiments have been repeated three times. c ^55Fe-enterobactin binding and uptake. Cells were grown as in panel a, and were incubated with or without 200 µM CCCP before initiation of transport assays by the addition of 500 nM ^55Fe-enterobactin. After 30 min incubations, the radioactivity accumulated in the bacteria was counted. The results are expressed as pmol of ^55Fe-enterobactin bound and transported per ml of cells at an OD600 of 1. The experiments have been repeated three times […]
# Specific pfeA gene transcription was measured by reverse transcription-quantitative PCR (RT-qPCR) from 16 h cultures in CAA medium as described in Supplementary Methods. […]
# The supernatant […]
# was discarded, and inner membrane proteins were solubilized in lysis buffer with 1% (w/v) N-lauroylsarkosine (Sigma-Aldrich). […]
# Quantitative real-time PCR. […] The amounts of specific cDNA were assessed in a StepOne Plus instrument (Applied Biosystems) by using a Power Sybr Green PCR Master Mix […]
# [2] = system: ∆pfeA(pMMBpfeA) cells (native PfeA); experiment: 55Fe-enterobactin binding and uptake assay, ∆pfeA(pMMBpfeA); type: cell-based, Pseudomonas aeruginosa; conditions: cells not treated with CCCP, 500 nM ^55Fe-enterobactin, 30 min
# Protocol: (§1) Fig. 6 Effects of PfeA mutation in vivo. a Analysis of changes in the transcription of pfeA gene. PAO1 strain, its corresponding deletion mutant ∆pfeA and deletion mutants carrying the expression plasmid of PfeA wild-type (∆pfeA(pMMBpfeA) or the R480A-Q482A mutant (∆pfeA(pMMBpfeAR480AQ482A)) were grown in CAA medium supplemented with 10 µM enterobactin. The data were normalised relative to the reference gene uvrD, and are representative of three independent experiments performed in triplicate (n = 3). The results are given as a ratio between the values obtained for ∆pfeA, ∆pfeA(pMMBpfeA) and ∆pfeA(pMMBpfeAR480AQ482A) over those obtained for the PAO1 strain. b ^55Fe-enterobactin binding at the bacterial surface. Cells were grown as in panel a, and were incubated for 15 min with 200 µM CCCP before initiation of transport assays by the addition of 500 nM ^55Fe-enterobactin. After 30 min incubation, the radioactivity accumulated in the bacteria was counted. The results are expressed as pmol of ^55Fe-enterobactin bound per ml of cells at an OD600 of 1. The experiments have been repeated three times. c ^55Fe-enterobactin binding and uptake. Cells were grown as in panel a, and were incubated with or without 200 µM CCCP before initiation of transport assays by the addition of 500 nM ^55Fe-enterobactin. After 30 min incubations, the radioactivity accumulated in the bacteria was counted. The results are expressed as pmol of ^55Fe-enterobactin bound and transported per ml of cells at an OD600 of 1. The experiments have been repeated three times
# (§2) The complex was prepared at ^55Fe concentrations of 50 μM, with a siderophore:iron (mol:mol) ratio of 20:1. P. aeruginosa strains were first grown overnight at 30 °C in LB broth, and were then washed, resuspended and cultured overnight at 30 °C in iron-deficient CAA medium (casamino acid medium, composition: 5 g.l^−1 low-iron CAA (Difco), 1.46 g.l^−1 K2HPO4 3H2O, 0.25 g.l^−1 MgSO4 7H2O) and in the presence of 10 µM enterobactin to induce the expression of PfeA. CAA is a highly iron-restricted medium with iron concentrations of 20 nM[59]. Afterwards bacteria were washed with 50 mM Tris-HCl pH 8.0, and diluted to an OD600 of 1. Cells solutions were divided in two, one batch being treated with 200 μM CCCP. This compound collapses the proton-motive force across the bacterial cell membranes, inhibiting TonB-dependent iron uptake. Binding and transport assays were initiated by adding 500 nM ^55Fe-enterobactin to the bacterial solutions treated or not with CCCP. After 30 min of incubations, cells were centrifuged, and the radioactivity associated to the bacteria was monitored in the cell pellets. For the cells treated with CCCP, the radioactivity in the cell pellets corresponds to the binding of ^55Fe-enterobactin to P. aeruginosa cell surface, since no uptake occurs. In the absence of CCCP, the radioactivity associated to the cells corresponds to ^55Fe-enterobactin binding to the cell surface and the uptake into the bacteria.
# [3] = set-up: method as in doi:10.1021/ja00514a037, PMID 12453412; conditions: cited from earlier work
# [4] = system: ∆pfeA(pMMBpfeAR480AQ482A) cells (double-mutant PfeA); experiment: 55Fe-enterobactin binding and uptake assay, ∆pfeA(pMMBpfeAR480AQ482A); type: cell-based, Pseudomonas aeruginosa; conditions: 500 nM ^55Fe-enterobactin, 30 min
# Protocol: as §1, §2
structure (smiles),measurement,setting,value
"O=C(N[C@H]1COC(=O)[C@@H](NC(=O)c2cccc(O)c2O)COC(=O)[C@@H](NC(=O)c2cccc(O)c2O)COC1=O)c1cccc(O)c1O [Enterobactin, enterobactin]",pfeA gene transcription (RT-qPCR),[1]; strain ΔpfeA (pMMBpfeA R480AQ482A),105.534 and 104.018 and 99.7495 and 101.79 and 78.5683 and 111.303 and 100.693 and 97.5736 and 107.445
same,pfeA gene transcription (RT-qPCR),[1]; strain ΔpfeA (pMMBpfeA),181.293 and 171.592 and 180.688 and 175.586 and 141.721 and 155.679 and 152.232 and 181.628 and 183.778
same,pfeA gene transcription (RT-qPCR),[1]; strain ΔpfeA,0.006806 and 0.03712 and 0.02449 and 0.03211 and 0.01571 and 0.01618 and 0.0116 and 0.02148 and 0.01134
same,^55Fe-enterobactin binding and uptake,[2],actively taken up
same,stability when not bound to iron,[3],easily degraded
same,^55Fe-enterobactin binding at the bacterial surface,[4]; CCCP treated cells (200 µM),does not bind
same,^55Fe-enterobactin binding and uptake,[4]; cells not treated with CCCP,not competent for the uptake

# From publication PMC6694100, “The complex of ferric-enterobactin with its transporter from Pseudomonas aeruginosa suggests a two-site model” (Nature Communications, 2019)
